Laboratory results as given in PMC2263054, “Functional evolution of the vitamin D and pregnane X receptors” (BMC Evolutionary Biology, 2007).
Like-named read-outs stand apart in the source and are kept apart here.

How the values were obtained:
Human VDR = target: T1, Human VDR (Homo sapiens, UniProt P11473); assay: luciferase reporter transactivation assay in HepG2-NTCP cells, full-length hVDR with CYP3A4-PXRE-Luc
T1 sequence (P11473 1-427): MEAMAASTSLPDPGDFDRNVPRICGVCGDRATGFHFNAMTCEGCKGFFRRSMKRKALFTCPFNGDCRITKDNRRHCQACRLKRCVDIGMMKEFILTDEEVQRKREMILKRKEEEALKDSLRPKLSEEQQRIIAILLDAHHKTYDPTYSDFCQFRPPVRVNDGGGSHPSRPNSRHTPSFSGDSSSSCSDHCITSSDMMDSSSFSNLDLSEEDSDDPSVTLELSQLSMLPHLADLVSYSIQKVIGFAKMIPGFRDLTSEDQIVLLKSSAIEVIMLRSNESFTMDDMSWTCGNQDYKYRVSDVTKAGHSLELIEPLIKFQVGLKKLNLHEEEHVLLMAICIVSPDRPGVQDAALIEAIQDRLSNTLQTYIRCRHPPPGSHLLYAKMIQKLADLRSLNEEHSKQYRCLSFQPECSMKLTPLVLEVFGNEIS

Mouse VDR = target: T2, Mouse VDR (Mus musculus, UniProt P48281); assay: luciferase reporter transactivation assay in HepG2-NTCP cells, full-length mVDR with CYP3A4-PXRE-Luc
T2 sequence (P48281 1-422): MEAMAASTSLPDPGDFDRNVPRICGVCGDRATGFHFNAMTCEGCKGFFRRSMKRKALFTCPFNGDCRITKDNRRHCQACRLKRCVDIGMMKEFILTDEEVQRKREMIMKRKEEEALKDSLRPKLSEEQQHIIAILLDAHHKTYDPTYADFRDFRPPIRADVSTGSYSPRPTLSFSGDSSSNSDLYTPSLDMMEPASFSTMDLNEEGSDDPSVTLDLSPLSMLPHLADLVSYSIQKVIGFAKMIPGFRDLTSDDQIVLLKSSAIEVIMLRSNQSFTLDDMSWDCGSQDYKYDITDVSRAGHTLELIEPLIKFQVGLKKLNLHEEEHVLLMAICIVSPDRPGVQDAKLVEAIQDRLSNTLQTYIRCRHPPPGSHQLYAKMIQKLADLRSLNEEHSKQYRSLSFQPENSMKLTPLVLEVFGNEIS

Xenopus laevis VDR = target: T3, Xenopus laevis VDR (Xenopus laevis, UniProt O13124); assay: luciferase reporter transactivation assay in HepG2-NTCP cells, GAL4/xlVDR LBD chimera with tk-UAS-Luc; assay type: cell-based; details: for Effect on Xenopus laevis VDR: screening for activators, at least three concentrations of each drug; for Xenopus VDR EC50 ± SD: unit not given, also cells saying No effect
T3 sequence (O13124 90-422): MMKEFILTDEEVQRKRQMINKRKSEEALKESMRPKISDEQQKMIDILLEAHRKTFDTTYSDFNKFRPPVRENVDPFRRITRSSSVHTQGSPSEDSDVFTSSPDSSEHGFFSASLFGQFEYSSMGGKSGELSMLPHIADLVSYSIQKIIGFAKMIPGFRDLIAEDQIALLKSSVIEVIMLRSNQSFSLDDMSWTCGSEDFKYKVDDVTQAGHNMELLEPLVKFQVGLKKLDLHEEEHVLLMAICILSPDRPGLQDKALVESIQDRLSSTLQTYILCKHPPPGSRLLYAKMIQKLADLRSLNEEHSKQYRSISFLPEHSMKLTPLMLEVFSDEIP

Zebrafish VDR = target: T4, Zebrafish VDR (Danio rerio, UniProt Q9PTN2); assay: luciferase reporter transactivation assay in HepG2-NTCP cells, GAL4/zfVDR LBD chimera with tk-UAS-Luc; assay type: cell-based; details: for Effect on zebrafish VDR: screening for activators, at least three concentrations of each drug; for Zebrafish VDR EC50 ± SD: unit not given, also cells saying No effect
T4 sequence (Q9PTN2 121-453): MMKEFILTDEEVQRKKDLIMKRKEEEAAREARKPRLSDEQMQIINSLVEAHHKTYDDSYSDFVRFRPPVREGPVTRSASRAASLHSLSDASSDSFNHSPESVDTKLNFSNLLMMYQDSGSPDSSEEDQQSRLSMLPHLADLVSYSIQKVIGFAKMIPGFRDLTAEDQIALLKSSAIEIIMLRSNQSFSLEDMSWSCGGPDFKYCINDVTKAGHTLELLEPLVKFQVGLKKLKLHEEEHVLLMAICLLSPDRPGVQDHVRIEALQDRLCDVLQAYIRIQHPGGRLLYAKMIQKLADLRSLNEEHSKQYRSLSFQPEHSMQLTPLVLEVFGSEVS

Sea lamprey VDR = target: T5, Sea lamprey VDR (Petromyzon marinus, UniProt Q7ZZY9); assay type: cell-based; details: for Effect on sea lamprey VDR: screening for activators, at least three concentrations of each drug; for Sea lamprey VDR EC50 ± SD: HepG2-NTCP cells, luciferase reporter, unit not given, also cells saying No effect
T5 sequence (Q7ZZY9 92-406): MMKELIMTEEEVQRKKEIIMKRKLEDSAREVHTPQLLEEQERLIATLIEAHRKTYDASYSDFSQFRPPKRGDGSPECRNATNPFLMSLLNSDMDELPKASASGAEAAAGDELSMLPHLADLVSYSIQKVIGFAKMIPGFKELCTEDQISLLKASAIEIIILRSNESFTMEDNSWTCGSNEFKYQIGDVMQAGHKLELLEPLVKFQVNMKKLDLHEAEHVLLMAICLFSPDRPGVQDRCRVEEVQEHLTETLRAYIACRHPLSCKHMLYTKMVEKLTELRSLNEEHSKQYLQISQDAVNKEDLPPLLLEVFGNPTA

[1] = tested on: ethoxyresorufin O-deethylase (EROD) activity (CYP1A-like activity); assay: EROD assay in zebrafish primary hepatocytes; details: zebrafish primary hepatocytes; DIM at concentrations of 2 μM and greater
Method: The cells are cultured at 26°C in ambient atmosphere.

[2] = tested on: testosterone 6β-hydroxylation; assay: testosterone hydroxylation (HPLC) in sea lamprey primary hepatocytes; assay type: cell-based; details: concentration ranges per compound
Method: 100 μL of sample, calibration standard, or quality material standard were pipetted into separate microcentrifuge tubes and mixed with 100 μL of methanol. Samples were vortexed and centrifuged at 13,000 rpm for 4 min. The supernatant was then injected into the HPLC.
The flow rate was 1.2 mL/min and total run time was 25 min.

EROD activity = assay: EROD assay in sea lamprey primary hepatocytes; details: 24–48 hr exposure
[3] = HepG2-NTCP cells, luciferase reporter
[4] = HepG2-NTCP cells, luciferase reporter, unit not given, also cells saying No effect
[5] = relative to maximal reference compound (1 μM calcitriol, efficacy = 1.0)

## C=C1/C(=C\C=C2/CCC[C@]3(C)[C@@H]([C@H](C)CCCC(C)C)CC[C@@H]23)C[C@@H](O)C[C@@H]1O [1α-Hydroxyvitamin D3]
Human VDR
  EC50: 4.3 ± 0.5 nM
Mouse VDR
  EC50: 0.3 ± 0.04 nM
Xenopus laevis VDR; HepG2-NTCP cells, luciferase reporter, read-out: Xenopus VDR EC50 ± SD
  EC50: 157 ± 10 nM
Zebrafish VDR; HepG2-NTCP cells, luciferase reporter, read-out: Zebrafish VDR EC50 ± SD
  EC50: 18 ± 1.4 nM

## c1ccc2c(Cc3c[nH]c4ccccc34)c[nH]c2c1 [3,3'-diindoylmethane]
Xenopus laevis VDR
  Effect on Xenopus laevis VDR: No effect
Zebrafish VDR
  Effect on zebrafish VDR: No effect
Sea lamprey VDR
  Effect on sea lamprey VDR: No effect
[1]
  effect on EROD activity: caused a decrease in EROD activity

## C[C@H](CCC(=O)O)[C@H]1CC[C@H]2[C@@H]3CC[C@@H]4CC(=O)CC[C@]4(C)[C@H]3CC[C@]12C [3-Ketolithocholic acid]
Human VDR
  Human VDR EC50 ± SD: 55 ± 8.1 (0.17)
Mouse VDR
  Mouse VDR EC50 ± SD: 20 ± 0.3 (0.58)
Xenopus laevis VDR; [3]
  Xenopus VDR EC50 ± SD: No effect
Xenopus laevis VDR
  Effect on Xenopus laevis VDR: No effect
Zebrafish VDR; [3]
  Zebrafish VDR EC50 ± SD: No effect
Zebrafish VDR
  Effect on zebrafish VDR: No effect
Sea lamprey VDR
  Sea lamprey VDR EC50 ± SD: No effect
  Effect on sea lamprey VDR: No effect
Ciona VDR/PXR
  Ciona VDR/PXR EC50 ± SD: No effect

## C[C@H](CCCO)[C@H]1CC[C@H]2[C@@H]3[C@H](O)C[C@H]4CC(=O)CC[C@]4(C)[C@H]3C[C@H](O)[C@]12C [3-keto-5α-petromyzonol]
[2]
  effect on testosterone 6β-hydroxylation: None of these compounds produced significant increases in testosterone 6β-hydroxylation

## CC(CCCOS(=O)(=O)O)[C@H]1CCC2C3C(C[C@H](O)[C@@]21C)[C@@]1(C)CC[C@@H](O)C[C@@H]1C[C@H]3O (stereo partly drawn) [5α-Petromyzonol 24-sulfate]
Human VDR; [4]
  Human VDR EC50 ± SD: No effect
Mouse VDR; [4]
  Mouse VDR EC50 ± SD: No effect
Xenopus laevis VDR; [3]
  Xenopus VDR EC50 ± SD: No effect
Zebrafish VDR; [3]
  Zebrafish VDR EC50 ± SD: No effect
Sea lamprey VDR
  Sea lamprey VDR EC50 ± SD: No effect
[2]
  effect on testosterone 6β-hydroxylation: None of these compounds produced significant increases in testosterone 6β-hydroxylation
Ciona VDR/PXR; [4]
  Ciona VDR/PXR EC50 ± SD: No effect
EROD activity
  effect on EROD activity: did not alter EROD activity

## C[C@]12CC[C@@H](O)C[C@@H]1CC[C@@H]1[C@@H]2CC[C@]2(C)C=CC[C@@H]12 [5α-androst-16-en-3α-ol]
Xenopus laevis VDR
  Effect on Xenopus laevis VDR: No effect
Zebrafish VDR
  Effect on zebrafish VDR: No effect
Sea lamprey VDR
  Effect on sea lamprey VDR: No effect
[2]
  effect on testosterone 6β-hydroxylation: None of these compounds produced significant increases in testosterone 6β-hydroxylation

## O=Cc1c2[nH]c3ccccc3c2cc2[nH]c3ccccc3c12 [6-Formylindolo-[3,2-b]-carbazole]
Human VDR; [5]
  Human VDR relative efficacy: ~0.12
Mouse VDR; relative to maximal reference compound (0.5 μM calcitriol, efficacy = 1.0)
  Mouse VDR relative efficacy: ~0.08
Xenopus laevis VDR; [5]
  Xenopus VDR relative efficacy: ~0.10
Zebrafish VDR; [5]
  Zebrafish VDR relative efficacy: < 0.03
Sea lamprey VDR
  Sea lamprey VDR relative efficacy: 0.25
Ciona VDR/PXR; relative to maximal reference compound (20 μM 6-formylindolo-[3,2-b]-carbazole, efficacy = 1.0)
  Ciona VDR/PXR relative efficacy: 1.0
Ciona VDR/PXR; unpublished data of the authors
  activation of ciVDR/PXR: activated
